Data published in PubChem BioAssay AID274 (DTP/NCI, 2004).
“And” between values parts separate entries of the source, which are not always exact repeats. Equal values may be shown once. Inconclusive results and toxic doses are left out.

Tested on: BDF1 mice, Lewis lung carcinoma iv, survival T/C
Test: NCI In Vivo Anticancer Drug Screen. Data for tumor model Lewis Lung Carcinoma (intravenous) in B6D2F1 (BDF1) mice
Conditions: endpoint: median survival time, higher = longer survival
Method: The antitumor activity of compounds was measured in mice bearing transplantable tumors. Survival or tumor size were measured and the results are expressed as the measurement made in the treated group (T) divided by the measurement made in the vehicle treated control group (C). The tumor model used in this assay is Lewis Lung Carcinoma (intravenous) in B6D2F1 (BDF1) mice

[1] = dose: 12.5 mg/kg/injection, schedule: Q01DX009 (ip), vehicle: Klucel (hydroxypropylcellulose) (HPC)
[2] = dose: 25.0 mg/kg/injection, schedule: Q01DX009 (ip), vehicle: Klucel (hydroxypropylcellulose) (HPC)
[3] = dose: 50.0 mg/kg/injection, schedule: Q01DX009 (ip), vehicle: Klucel (hydroxypropylcellulose) (HPC)
[4] = dose: 100.0 mg/kg/injection, schedule: Q01DX009 (ip), vehicle: Klucel (hydroxypropylcellulose) (HPC)
[5] = dose: 6.25 mg/kg/injection, schedule: Q01DX009 (ip), vehicle: saline
[6] = dose: 12.5 mg/kg/injection, schedule: Q01DX009 (ip), vehicle: saline
[7] = dose: 100.0 mg/kg/injection, schedule: Q01DX009 (ip), vehicle: saline with Tween-80
[8] = dose: 200.0 mg/kg/injection, schedule: Q01DX009 (ip), vehicle: saline with Tween-80
[9] = dose: 400.0 mg/kg/injection, schedule: Q01DX009 (ip), vehicle: saline with Tween-80
[10] = dose: 50.0 mg/kg/injection, schedule: Q01DX009 (ip), vehicle: saline
[11] = dose: 100.0 mg/kg/injection, schedule: Q01DX009 (ip), vehicle: saline

O=c1[nH]cc(F)c(=O)[nH]1
T/C (dose: 2.0 mg/kg/injection, schedule: Q01DX009 (ip), vehicle: saline): 106 % of control
T/C (dose: 2.5 mg/kg/injection, schedule: Q01DX009 (ip), vehicle: saline): 108 % of control
T/C (dose: 4.0 mg/kg/injection, schedule: Q01DX009 (ip), vehicle: saline): 110 % of control
T/C (dose: 5.0 mg/kg/injection, schedule: Q01DX009 (ip), vehicle: saline): 116 % of control
T/C (dose: 7.5 mg/kg/injection, schedule: Q04DX003 (ip), vehicle: saline): 96 % of control (2×) and 110 % of control
T/C (dose: 8.0 mg/kg/injection, schedule: Q01DX009 (ip), vehicle: saline): 112 % of control
T/C (dose: 9.8 mg/kg/injection, schedule: Q01DX009 (ip), vehicle: saline): 122 % of control
T/C (dose: 10.0 mg/kg/injection, schedule: Q01DX009 (ip), vehicle: saline): 104 % of control and 109 % of control and 122 % of control
T/C (dose: 13.2 mg/kg/injection, schedule: Q04DX006 (ip), vehicle: saline): 104 % of control
T/C (dose: 14.0 mg/kg/injection, schedule: Q01DX009 (ip), vehicle: saline): 163 % of control
T/C (dose: 14.0 mg/kg/injection, schedule: Q01DX022 (ip), vehicle: saline): 193 % of control
T/C (dose: 15.0 mg/kg/injection, schedule: Q04DX003 (ip), vehicle: saline): 105 % of control and 110 % of control (2×)
T/C (dose: 16.0 mg/kg/injection, schedule: Q01DX009 (ip), vehicle: saline): 107 % of control
T/C (dose: 28.6 mg/kg/injection, schedule: Q01DX009 (ip), vehicle: saline): 109 % of control
T/C (dose: 32.0 mg/kg/injection, schedule: Q01DX009 (ip), vehicle: saline): 122 % of control
T/C (dose: 40.9 mg/kg/injection, schedule: Q01DX009 (ip), vehicle: saline): 109 % of control
T/C (dose: 60.0 mg/kg/injection, schedule: Q04DX003 (ip), vehicle: saline): 150 % of control

O=C1C(=O)c2ccccc2C(O)=C1CC=C(Cl)Cl
T/C [1]: 104 % of control
T/C [2]: 93 % of control
T/C [3]: 91 % of control

COc1cc(NS(C)(=O)=O)ccc1Nc1c2ccccc2nc2ccccc12
T/C (dose: 3.6 mg/kg/injection, schedule: Q04DX003 (ip), vehicle: clinical formulation): 104 % of control
T/C (dose: 6.0 mg/kg/injection, schedule: Q04DX003 (ip), vehicle: clinical formulation): 108 % of control
T/C (dose: 16.7 mg/kg/injection, schedule: Q04DX003 (ip), vehicle: clinical formulation): 121 % of control

C=C(C)C(=O)OCC1CO1 (stereo not drawn)
T/C [3]: 88 % of control
T/C [4]: 105 % of control

Nc1nnc[se]1
T/C (dose: 3.12 mg/kg/injection, schedule: Q01DX009 (ip), vehicle: saline with Tween-80): 103 % of control
T/C (dose: 6.25 mg/kg/injection, schedule: Q01DX009 (ip), vehicle: saline with Tween-80): 111 % of control
T/C (dose: 25.0 mg/kg/injection, schedule: Q01DX009 (ip), vehicle: saline with Tween-80): 118 % of control

OCCN1CCN(CC/C=C2/c3ccccc3Sc3ccc(Cl)cc32)CC1
T/C (dose: 0.78 mg/kg/injection, schedule: Q01DX009 (ip), vehicle: saline): 102 % of control
T/C (dose: 1.56 mg/kg/injection, schedule: Q01DX009 (ip), vehicle: saline): 111 % of control
T/C (dose: 3.12 mg/kg/injection, schedule: Q01DX009 (ip), vehicle: saline): 98 % of control
T/C [5]: 101 % of control
T/C [6]: 100 % of control

CC1CCC(NC(=O)N(CCCl)N=O)CC1 (stereo not drawn)
T/C (dose: 5.0 mg/kg/injection, schedule: Q01DX001 (ip), vehicle: saline): 100 % of control
T/C (dose: 10.0 mg/kg/injection, schedule: Q01DX001 (ip), vehicle: saline): 100 % of control
T/C (dose: 24.0 mg/kg/injection, schedule: Q01DX001 (ip), vehicle: saline with Tween-80): 156 % of control
T/C (dose: 24.0 mg/kg/injection, schedule: Q06DX002 (ip), vehicle: saline with Tween-80): 176 % of control and 270 % of control
T/C (dose: 30.0 mg/kg/injection, schedule: Q01DX001 (ip), vehicle: saline): 94 % of control and 103 % of control
T/C (dose: 30.0 mg/kg/injection, schedule: Q06DX002 (ip), vehicle: saline with Tween-80): 220 % of control and 260 % of control
T/C (dose: 36.0 mg/kg/injection, schedule: Q01DX001 (ip), vehicle: saline with Tween-80): 162 % of control and 185 % of control and 205 % of control
T/C (dose: 40.0 mg/kg/injection, schedule: Q01DX001 (ip), vehicle: saline): 103 % of control

O=C1c2ccccc2C(=O)c2c(NCCNCCO)ccc(NCCNCCO)c21
T/C (dose: 1.0 mg/kg/injection, schedule: Q01DX005 (ip), vehicle: saline with Tween-80): 119 % of control
T/C (dose: 1.0 mg/kg/injection, schedule: Q01DX009 (ip), vehicle: saline with Tween-80): 100 % of control
T/C (dose: 2.0 mg/kg/injection, schedule: Q01DX005 (ip), vehicle: saline): 102 % of control
T/C (dose: 2.0 mg/kg/injection, schedule: Q01DX009 (ip), vehicle: saline with Tween-80): 110 % of control
T/C (dose: 4.0 mg/kg/injection, schedule: Q01DX005 (ip), vehicle: saline with Tween-80): 109 % of control
T/C (dose: 4.0 mg/kg/injection, schedule: Q01DX009 (ip), vehicle: saline with Tween-80): 102 % of control

C[C@H](N)C(=O)N[C@@H]1[C@H]2C(=C(O)C[C@@H](O)[C@@H]2O)C(=O)O[C@]1(C)C(Cl)Cl
T/C (dose: 0.38 mg/kg/injection, schedule: Q01DX009 (ip), vehicle: Klucel (hydroxypropylcellulose) (HPC)): 101 % of control
T/C (dose: 0.75 mg/kg/injection, schedule: Q01DX009 (ip), vehicle: Klucel (hydroxypropylcellulose) (HPC)): 102 % of control
T/C (dose: 1.5 mg/kg/injection, schedule: Q01DX009 (ip), vehicle: Klucel (hydroxypropylcellulose) (HPC)): 108 % of control

O=C(NCCCCCCNC(=O)N1CC1)N1CC1
T/C (dose: 0.3 mg/kg/injection, schedule: Q01DX009 (ip), vehicle: saline): 104 % of control
T/C (dose: 0.6 mg/kg/injection, schedule: Q01DX009 (ip), vehicle: saline): 119 % of control
T/C (dose: 1.2 mg/kg/injection, schedule: Q01DX009 (ip), vehicle: saline): 115 % of control
T/C (dose: 2.4 mg/kg/injection, schedule: Q01DX009 (ip), vehicle: saline): 120 % of control

O=C1C2CC(Cl)C(SSC3CC4C(=O)N(SC(Cl)(Cl)C(Cl)Cl)C(=O)C4CC3Cl)CC2C(=O)N1SC(Cl)(Cl)C(Cl)Cl (stereo not drawn)
T/C (dose: 6.0 mg/kg/injection, schedule: Q01DX009 (ip), vehicle: Klucel (hydroxypropylcellulose) (HPC)): 104 % of control
T/C (dose: 12.0 mg/kg/injection, schedule: Q01DX009 (ip), vehicle: Klucel (hydroxypropylcellulose) (HPC)): 103 % of control
T/C (dose: 24.0 mg/kg/injection, schedule: Q01DX009 (ip), vehicle: Klucel (hydroxypropylcellulose) (HPC)): 89 % of control
T/C (dose: 48.0 mg/kg/injection, schedule: Q01DX009 (ip), vehicle: Klucel (hydroxypropylcellulose) (HPC)): 93 % of control
T/C (dose: 96.0 mg/kg/injection, schedule: Q01DX009 (ip), vehicle: Klucel (hydroxypropylcellulose) (HPC)): 95 % of control

CCCCCCCCCCCCCCCCCCNC(=S)N/N=C/c1ccc(Cl)cc1Cl
T/C [7]: 110 % of control
T/C [8]: 108 % of control
T/C [9]: 93 % of control

CC1(C)COCN1COCCOCN1COCC1(C)C
T/C [5]: 114 % of control
T/C [6]: 97 % of control
T/C (dose: 25.0 mg/kg/injection, schedule: Q01DX009 (ip), vehicle: saline): 106 % of control
T/C [10]: 122 % of control
T/C [11]: 95 % of control

CCOC(=O)C1C2OC(=O)C(C(=O)C2CN(CCCl)CCCl)C1C1CC=C(CC2=CCC(C3C4C(=O)OC(C(CN(CCCl)CCCl)C4=O)C3C(=O)OCC)CC2)CC1 (stereo not drawn)
T/C [1]: 104 % of control
T/C [2]: 104 % of control
T/C [3]: 102 % of control
T/C [4]: 111 % of control

COC(=O)CC(N)C(=O)O (stereo not drawn)
T/C [6]: 115 % of control
T/C [10]: 95 % of control
T/C [11]: 109 % of control
T/C (dose: 200.0 mg/kg/injection, schedule: Q01DX009 (ip), vehicle: saline): 100 % of control

O=C(CCl)N1c2ccccc2Oc2cc3ccccc3cc21
T/C [7]: 107 % of control
T/C [8]: 116 % of control
T/C [9]: 111 % of control

C=CC(C)NC(=S)NNC(=S)NC (stereo not drawn)
T/C (dose: 25.0 mg/kg/injection, schedule: Q01DX009 (ip), vehicle: saline + alcohol): 119 % of control
T/C (dose: 50.0 mg/kg/injection, schedule: Q01DX009 (ip), vehicle: saline + alcohol): 110 % of control
T/C (dose: 100.0 mg/kg/injection, schedule: Q01DX009 (ip), vehicle: saline + alcohol): 107 % of control
T/C (dose: 200.0 mg/kg/injection, schedule: Q01DX009 (ip), vehicle: saline + alcohol): 104 % of control
T/C (dose: 400.0 mg/kg/injection, schedule: Q01DX009 (ip), vehicle: saline + alcohol): 114 % of control
